Where a SMILES comes first, the peptide text is derived from it. Bridges are numbered along the chain shown (N, C = ends). The star is where a group is joined. DOTA = O=C(O)CN1CCN(CC(=O)O)CCN(CC(=O)*)CCN(CC(=O)O)CC1
Target: T1, ADAMTS4 (Homo sapiens, UniProt O75173)
T1 construct: This is consistent with the recombinant proteins, we used in the screening process; purchased BioTeZ Berlin-Buch GmbH 30 400 102
T1 sequence (O75173 213-685): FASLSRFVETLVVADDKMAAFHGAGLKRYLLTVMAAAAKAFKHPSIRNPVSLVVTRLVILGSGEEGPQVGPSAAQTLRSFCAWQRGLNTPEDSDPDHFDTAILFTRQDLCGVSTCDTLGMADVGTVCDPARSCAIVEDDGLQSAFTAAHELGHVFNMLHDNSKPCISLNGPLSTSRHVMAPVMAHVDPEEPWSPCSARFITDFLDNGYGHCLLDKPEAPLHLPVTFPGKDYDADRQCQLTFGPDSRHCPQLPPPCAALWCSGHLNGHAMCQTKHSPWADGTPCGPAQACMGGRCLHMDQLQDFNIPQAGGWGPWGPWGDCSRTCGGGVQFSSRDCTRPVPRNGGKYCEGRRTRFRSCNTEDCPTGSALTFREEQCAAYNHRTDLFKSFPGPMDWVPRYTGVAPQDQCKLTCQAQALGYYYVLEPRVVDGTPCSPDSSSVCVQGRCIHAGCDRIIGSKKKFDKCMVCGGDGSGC
Assay: MST of earlier manuscript version (RED-tris-NTA labeled protein)
Conditions: earlier manuscript version quoted in peer review file; RED-tris-NTA labeled ADAMTS4, FAM-5 labeled peptides; read-out: binding constant (KD)
From the text: on the beads. Additionally, we could not find any traces of proteins in the MALDI-TOF-MS […]
We identified one candidate as the most promising binding peptide for ADAMTS4 with the sequence Ser- Cys*-Gly-Arg-Arg-Ser-Cys* (Supp. Fig. 1b, c).
5. “The representation of SPR data needs to be adjusted, additional experimental details have to be added to the Supplemental figures. Please, see the comments in Supplemental for details.” We apologize to the reviewer for this oversight. All data are now added to the supplemental material. SPR was only use for classification to determine whether the peptides represent potential […]
Page 8: For the resulting ADAMTS4- specific probe, we measured a binding constant of 38 nM […]
6. […] The data quality if […]
unfortunately too poor (the amplitude too low; minimal recommended amplitude is 3). Also, why were the FAM-5 labeled peptides used in the combination with the RED-tris-NTA labeled protein? […]
Additionally, we measured the same probe against ADAMTS1 and ADAMTS5 in the same concentration range, and we could not detect binding in this range (Supp. Fig. 2a). […]
R = Ranti−His−Ab ∗ MADAMTS4 ∗ Valencyanti−His−Ab we calculated a Rmax of 5524 µRIU. […]
Before and after the run, a blank was measured. […]
19. […] Using the fluorescence of the labeled […]
We added the sensogram and calculated the protein capture (please refer to question 16).

N=C(N)NCCC[C@@H]1NC(=O)[C@H](CCCNC(=N)N)NC(=O)[C@H](CO)NC(=O)[C@@H](N)CSSC[C@@H](C(=O)N[C@@H](CO)C(=O)NCC(=O)NCC(=O)N[C@@H](CO)C(=O)NCC(=O)NCC(=O)N[C@@H](CCCCNC(=O)CN2CCN(CC(=O)O)CCN(CC(=O)O)CCN(CC(=O)O)CC2)C(=O)NCC(N)=O)NC(=O)CNC1=O (Gd complex, metal not drawn) [ADAMTS4-specific probe] (H-CSRRGCSGGSGGK(DOTA)G-NH2; disulfide 1-6)
Kd: 38 nM
